Reference: PubChem BioAssay (NCI)
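Cells were grown in 96-well plates and exposed to each compound for 48 hours at five concentrations; endpoints were interpolated linearly between bracketing concentrations, or set to the highest concentration if not reached. At the GI50, growth is halved. At the TGI there is no net growth.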

What was measured:
Assay in all cases: growth of human tumour cells (NCI), 48 h
OVCAR-5 ovarian = test system: OVCAR-5 ovarian
EKVX NSCLC = test system: EKVX NSCLC
CAKI-1 renal = test system: CAKI-1 renal
SK-OV-3 ovarian = test system: SK-OV-3 ovarian
SNB-75 CNS = test system: SNB-75 CNS
MALME-3M melanoma = test system: MALME-3M melanoma
LOX IMVI melanoma = test system: LOX IMVI melanoma
T-47D breast = test system: T-47D breast
A549 NSCLC = test system: A549 NSCLC
SW-620 colon = test system: SW-620 colon
SK-MEL-2 melanoma = test system: SK-MEL-2 melanoma
UACC-257 melanoma = test system: UACC-257 melanoma
TK-10 renal = test system: TK-10 renal
HS 578T breast = test system: HS 578T breast
HCT-15 colon = test system: HCT-15 colon
SR leukemia = test system: SR leukemia
BT-549 breast = test system: BT-549 breast
NCI-H226 lung = test system: NCI-H226 lung
IGROV1 ovarian = test system: IGROV1 ovarian
SF-268 CNS = test system: SF-268 CNS
SF-295 CNS = test system: SF-295 CNS
SK-MEL-28 melanoma = test system: SK-MEL-28 melanoma
UO-31 renal = test system: UO-31 renal
MOLT-4 leukemia = test system: MOLT-4 leukemia
OVCAR-8 ovarian = test system: OVCAR-8 ovarian
OVCAR-4 ovarian = test system: OVCAR-4 ovarian
A498 renal = test system: A498 renal
CCRF-CEM leukemia = test system: CCRF-CEM leukemia
NCI-H522 lung = test system: NCI-H522 lung
HCT-116 colon = test system: HCT-116 colon
SN12C renal = test system: SN12C renal
KM12 colon = test system: KM12 colon
K-562 leukemia = test system: K-562 leukemia
SF-539 CNS = test system: SF-539 CNS
RXF 393 renal = test system: RXF 393 renal
HL-60(TB) leukemia = test system: HL-60(TB) leukemia
RPMI-8226 leukemia = test system: RPMI-8226 leukemia
DU-145 prostate = test system: DU-145 prostate
NCI-H460 lung = test system: NCI-H460 lung
UACC-62 melanoma = test system: UACC-62 melanoma
MCF7 breast = test system: MCF7 breast
MDA-MB-231 breast = test system: MDA-MB-231 breast
M14 melanoma = test system: M14 melanoma
HCC-2998 colon = test system: HCC-2998 colon
U251 CNS = test system: U251 CNS
OVCAR-3 ovarian = test system: OVCAR-3 ovarian
SNB-19 CNS = test system: SNB-19 CNS
HOP-92 NSCLC = test system: HOP-92 NSCLC
NCI/ADR-RES ovarian = test system: NCI/ADR-RES ovarian
SK-MEL-5 melanoma = test system: SK-MEL-5 melanoma
NCI-H23 lung = test system: NCI-H23 lung
HOP-62 NSCLC = test system: HOP-62 NSCLC
COLO 205 colon = test system: COLO 205 colon
HT29 colon = test system: HT29 colon
PC-3 prostate = test system: PC-3 prostate
ACHN renal = test system: ACHN renal
786-0 renal = test system: 786-0 renal
MDA-MB-435 = test system: MDA-MB-435

CCN(CC)CCS(=O)c1c2cc(OC)ccc2nc2ccc(OC)cc12 (configuration not stated)
TGI (OVCAR-5 ovarian): 36.1 µM
TGI (EKVX NSCLC): 30.8 µM
TGI (CAKI-1 renal): 23.9 µM
TGI (SK-OV-3 ovarian): 40.9 µM
TGI (SNB-75 CNS): 36 µM
TGI (MALME-3M melanoma): 2.51 µM
TGI (LOX IMVI melanoma): > 42.9 µM
TGI (T-47D breast): 4.04 µM
TGI (A549 NSCLC): 55.3 µM
TGI (SW-620 colon): > 21.9 µM
TGI (SK-MEL-2 melanoma): 40.3 µM
TGI (UACC-257 melanoma): 17.6 µM
TGI (TK-10 renal): 11.7 µM
TGI (HS 578T breast): 29.1 µM
TGI (HCT-15 colon): 16.6 µM
TGI (SR leukemia): > 23.7 µM
TGI (BT-549 breast): 31.2 µM
TGI (NCI-H226 lung): 39.5 µM
TGI (IGROV1 ovarian): 8.52 µM
TGI (SF-268 CNS): 23.5 µM
TGI (SF-295 CNS): 44.2 µM
TGI (SK-MEL-28 melanoma): 34.4 µM
TGI (UO-31 renal): 5.43 µM
TGI (MOLT-4 leukemia): > 21.2 µM
TGI (OVCAR-8 ovarian): 21 µM
TGI (OVCAR-4 ovarian): 29.7 µM
TGI (A498 renal): 33.1 µM
TGI (CCRF-CEM leukemia): > 25.6 µM
TGI (NCI-H522 lung): 1.38 µM
TGI (HCT-116 colon): 4.55 µM
TGI (SN12C renal): 9.64 µM
TGI (KM12 colon): > 57.5 µM
TGI (K-562 leukemia): > 25.7 µM
TGI (SF-539 CNS): 6 µM
TGI (RXF 393 renal): 24.6 µM
TGI (HL-60(TB) leukemia): > 100 µM
TGI (RPMI-8226 leukemia): 7.11 µM
TGI (DU-145 prostate): 4.04 µM
TGI (NCI-H460 lung): > 82.2 µM
TGI (UACC-62 melanoma): 36.8 µM
TGI (MCF7 breast): > 24.9 µM
TGI (MDA-MB-231 breast): 28.4 µM
TGI (M14 melanoma): 26.3 µM
TGI (HCC-2998 colon): 40.7 µM
TGI (U251 CNS): > 60.6 µM
TGI (OVCAR-3 ovarian): 15.6 µM
TGI (SNB-19 CNS): 72 µM
TGI (HOP-92 NSCLC): > 24.3 µM
TGI (NCI/ADR-RES ovarian): 52.6 µM
TGI (SK-MEL-5 melanoma): 32.3 µM
TGI (NCI-H23 lung): 41.3 µM
TGI (HOP-62 NSCLC): 44.8 µM
TGI (COLO 205 colon): 3.99 µM
TGI (HT29 colon): 12 µM
TGI (PC-3 prostate): 26.9 µM
TGI (ACHN renal): 5.44 µM
TGI (786-0 renal): 4.35 µM
TGI (MDA-MB-435): 26.6 µM

O=C(Nc1ncc(Cc2ccccc2Cl)s1)c1ccc2c(c1)OCCO2
GI50 (OVCAR-5 ovarian): 0.747 µM
TGI (OVCAR-5 ovarian): > 100 µM
GI50 (EKVX NSCLC): 0.663 µM
TGI (EKVX NSCLC): > 100 µM
GI50 (CAKI-1 renal): 0.306 µM
TGI (CAKI-1 renal): > 47.9 µM
GI50 (SK-OV-3 ovarian): 0.537 µM
TGI (SK-OV-3 ovarian): 22.6 µM
GI50 (SNB-75 CNS): 0.262 µM
TGI (SNB-75 CNS): 6.55 µM
GI50 (MALME-3M melanoma): 0.68 µM
TGI (MALME-3M melanoma): > 47.1 µM
GI50 (LOX IMVI melanoma): 0.583 µM
TGI (LOX IMVI melanoma): > 100 µM
GI50 (T-47D breast): 0.333 µM
TGI (T-47D breast): > 100 µM
GI50 (A549 NSCLC): 0.466 µM
TGI (A549 NSCLC): > 100 µM
GI50 (SW-620 colon): 0.358 µM
TGI (SW-620 colon): > 100 µM
GI50 (SK-MEL-2 melanoma): 0.667 µM
TGI (SK-MEL-2 melanoma): > 69.6 µM
GI50 (UACC-257 melanoma): 6.27 µM
TGI (UACC-257 melanoma): > 82.1 µM
GI50 (TK-10 renal): 0.672 µM
TGI (TK-10 renal): > 40 µM
GI50 (HS 578T breast): 0.354 µM
TGI (HS 578T breast): 35.5 µM
GI50 (HCT-15 colon): 0.119 µM
TGI (HCT-15 colon): > 100 µM
GI50 (SR leukemia): 0.206 µM
TGI (SR leukemia): > 100 µM
GI50 (BT-549 breast): 0.567 µM
TGI (BT-549 breast): > 100 µM
GI50 (NCI-H226 lung): 1.17 µM
TGI (NCI-H226 lung): 8.45 µM
GI50 (IGROV1 ovarian): 0.498 µM
TGI (IGROV1 ovarian): > 57.8 µM
GI50 (SF-268 CNS): 1.8 µM
TGI (SF-268 CNS): > 100 µM
GI50 (SF-295 CNS): 0.346 µM
TGI (SF-295 CNS): 5.04 µM
GI50 (SK-MEL-28 melanoma): 1.66 µM
TGI (SK-MEL-28 melanoma): > 59 µM
GI50 (UO-31 renal): 1.13 µM
TGI (UO-31 renal): > 100 µM
GI50 (MOLT-4 leukemia): 0.581 µM
TGI (MOLT-4 leukemia): > 100 µM
GI50 (OVCAR-8 ovarian): 0.479 µM
TGI (OVCAR-8 ovarian): > 100 µM
GI50 (OVCAR-4 ovarian): 0.693 µM
TGI (OVCAR-4 ovarian): > 68.2 µM
GI50 (A498 renal): 0.151 µM
TGI (A498 renal): 0.693 µM
GI50 (CCRF-CEM leukemia): 0.36 µM
TGI (CCRF-CEM leukemia): > 100 µM
GI50 (NCI-H522 lung): 0.261 µM
GI50 (HCT-116 colon): 0.335 µM
TGI (HCT-116 colon): > 100 µM
GI50 (SN12C renal): 0.614 µM
TGI (SN12C renal): > 94 µM
GI50 (KM12 colon): 0.322 µM
TGI (KM12 colon): > 35.6 µM
GI50 (K-562 leukemia): 0.183 µM
TGI (K-562 leukemia): > 100 µM
GI50 (SF-539 CNS): 0.258 µM
TGI (SF-539 CNS): 0.741 µM
GI50 (RXF 393 renal): 0.255 µM
TGI (RXF 393 renal): 1.19 µM
GI50 (HL-60(TB) leukemia): 0.396 µM
GI50 (RPMI-8226 leukemia): 0.479 µM
TGI (RPMI-8226 leukemia): > 100 µM
GI50 (DU-145 prostate): 0.384 µM
TGI (DU-145 prostate): 17.5 µM
GI50 (NCI-H460 lung): 0.352 µM
TGI (NCI-H460 lung): > 44.1 µM
GI50 (UACC-62 melanoma): 0.569 µM
TGI (UACC-62 melanoma): > 43.3 µM
GI50 (MCF7 breast): 0.32 µM
TGI (MCF7 breast): > 100 µM
GI50 (MDA-MB-231 breast): 0.38 µM
TGI (MDA-MB-231 breast): 8.76 µM
GI50 (M14 melanoma): 0.246 µM
TGI (M14 melanoma): 14.5 µM
GI50 (HCC-2998 colon): 0.468 µM
TGI (HCC-2998 colon): > 55.5 µM
GI50 (U251 CNS): 0.4 µM
TGI (U251 CNS): > 51.6 µM
GI50 (OVCAR-3 ovarian): 0.285 µM
TGI (OVCAR-3 ovarian): 1.07 µM
GI50 (SNB-19 CNS): 0.548 µM
TGI (SNB-19 CNS): > 45.5 µM
GI50 (HOP-92 NSCLC): 4.08 µM
TGI (HOP-92 NSCLC): > 81.8 µM
GI50 (NCI/ADR-RES ovarian): 0.322 µM
TGI (NCI/ADR-RES ovarian): 22.2 µM
GI50 (SK-MEL-5 melanoma): 0.334 µM
TGI (SK-MEL-5 melanoma): 1.81 µM
GI50 (NCI-H23 lung): 0.625 µM
TGI (NCI-H23 lung): > 100 µM
GI50 (HOP-62 NSCLC): 0.592 µM
TGI (HOP-62 NSCLC): > 82.9 µM
GI50 (COLO 205 colon): 0.318 µM
TGI (COLO 205 colon): 3.55 µM
GI50 (HT29 colon): 0.616 µM
TGI (HT29 colon): > 48.5 µM
GI50 (PC-3 prostate): 0.417 µM
TGI (PC-3 prostate): > 100 µM
GI50 (ACHN renal): 0.776 µM
TGI (ACHN renal): > 65.1 µM
GI50 (786-0 renal): 0.574 µM
TGI (786-0 renal): > 100 µM
GI50 (MDA-MB-435): 0.0399 µM
TGI (MDA-MB-435): 0.22 µM
